Entries after “also recorded” stand apart in the source; their conditions may differ. Where a name gives a salt, the structure may show the parent alone.
Tests used:
[1] = cited from earlier work
[2] = in vivo; cited from earlier work
[3] = system: A549, H23, H2122 and H1975 NSCLC cells; assay: MTS cell viability/proliferation assay in NSCLC cell lines, 72 h; assay type: cell-based, human
Description: FIG. 5. Parthenolide analogues JD201-JD210 suppress human lung tumor cell proliferation in vitro. A549, H23, H2122 and H1975 NSCLC cells were treated with increasing concentrations of drugs (0.1-100 μM). After 72 h cell viability was assessed by MTS assay. Viable cells are expressed as percentage of vehicle control. P<0.01 (**), versus control group, P<0.05 (*), versus control group. Natural occurring parthenolide (PTL), parthenolide analogues JD201 (DMAPT)-JD210. Parthenolide analogues inhibit female (H1975, H2122) and male (H23, A549) NSCLC cell proliferation.
To determine the effect of parthenolide analogues in lung cancer cell proliferation we tested two male (A549, H23) and two female (H2122, H1975) lung cancer cell lines with increasing concentrations of parthenolide analogues (0.1, 1, 10 and 100 μM) for 72 hours.

[4] = system: NF-κB/p65 phosphorylation; assay: Western blot of phospho-NF-κB/p65 in H23 cells; assay type: cell-based, human; settings: for phosphorylation of the p65 subunit of NF-κB: 10 μM, 60 min (FIG. 7); for phosphorylation of NF-κB/p65: 10 µM, 60 min (FIG. 13)
Description: FIG. 7. […] After 60 min Western blot were performed using anti-phospho-NF-κB/p65 antibody (Cell Signaling Technology #3031). Membranes were stripped and re-probed with antibody against total NF-κB/p65 (CST #3037).
After 60 min, Western blots were done using anti-phospho-NFκB/p65 antibody (Cell Signaling).
Upon confirming that parthenolide analogues can inhibit NSCLC cell proliferation, induce cell death and enhance the cytotoxicity of chemotherapy, we began to investigate potential cellular mechanisms that may underlie this process. For example, we used Western Blot methods to determine phosphorylation of the p65 subunit of NF-κB. H23 cells were incubated in the presence of vehicle control or 10 μM concentration of the parthenolide derivatives (JD 201, 202, 203, 204) for 60 min. After treatment, cells were collected and homogenized in lysis buffer. Extracts were electrophoresed on 4-20% gradient SDS-PAGE gels and transferred to nitrocellulose membranes. Blots were probed with anti-phospho-NF-κB/p65 and NF-κB/p65 for a loading control.

[5] = system: MCF7 parent cells without HER2 overexpression; assay: MCF-7 parent xenografts in nude mice; assay type: in vivo; settings: 28 d treatment
Excerpt: (§1) Conversion of estrogen-sensitive to -resistant tumors after the start of antiestrogen therapy is a major problem in the clinic (65). This resistance may be due, in part, to enhanced growth factor signaling, a cellular response to antiestrogen treatment that eventually results in increased phosphorylation of ER and/or coactivators, such as AIB1(54). Convergence between growth factor and estrogen signaling may elicit a synergistic feed-forward circuit with more robust cell growth (FIG. 10). It is notable that tumors with HER-2 overexpression tend to respond poorly to antiestrogens (69-72). […] Such clinical data offer further evidence of the biologic interaction between HER-2 and ER. To evaluate the relation of HER-2 to clinical antiestrogen resistance, we used estrogen-responsive, MCF-7 cells with defined levels of ER that were transfected with HER-2 gene (MCF-7/HER-2). MCF-7 cells+HER-2 overexpression and parent MCF-7 cells were grown as xenografts in nude mice as before (28) (FIGS. 11A-11B).
(§2) FIGS. 11A-11B. Overexpression of HER2 gene in MCF7 cells elicits resistance to endocrine therapy in vivo; FIG. 11A: Antiestrogen sensitivity of MCF7 parent cells without HER2 overexpression (control) in vivo. MCF7 cells were inoculated SQ in ovari-ectomized, nude mice primed with estrogen. […] Tumor volumes were recorded. […]

MCF-7/HER2 cells = assay: MCF-7/HER2 xenografts in nude mice; assay type: in vivo
Excerpt: as §1, §2

[6] = system: MCF-7/TAMR breast cancer cells; assay: Proliferation of tamoxifen-resistant MCF-7/TMR (TAM-R) cells; assay type: cell-based, human; settings: absence of parthenolide analogues
Description: MCF-7/CON cells are tamoxifen-sensitive, while MCF-7/HER2 and MCF-7/TMR cells are known to be tamoxifen-resistant (28,61,66,67). Except for TMR (64,68), cells were routinely cultured in RPMI 1640 media with 10% heat-inactivated FBS (28,64,66). For E2-free conditions, media were changed 48 h before studies to phenol-red free RPMI 1640 with 1% dextran-coated, charcoal-treated (DCC) FBS. TMR cells were derived by long-term continuous exposure of cells to 10^−7 M 4-hydroxy-tamoxifen by established methods (64,68) and were maintained with 10^−7 M 4-hydroxytamoxifen in medium. Levels of ERα and HER2 expression in these several cell lines were determined by use of Western blot methods.
Assays for Tumor Cell Proliferation. Breast tumor cells were be grown in RPMI 1640 media with 10% heat-inactivated FBS (except for TMR and TZR cells as noted above). For estrogen-free conditions, medium were changed 48 h before studies to phenol-red free RPMI 1640 with 1% dextran-coated, charcoal-treated (DCC) FBS, then treated with selected reagents. Cell counts and viability tests (Trypan blue) will be done every 24 hr for […]. After 48-72 hr, proliferation was assessed by cell counts.

A549 NSCLC cells = assay: ALDH+/CD133+ cancer stem/progenitor cell subset by Aldefluor/CD133 FACS; assay type: cell-based, human; settings: 10 nM estradiol-17b, P<0.001
Description: FIG. 1. Isolation of cancer stem/progenitor cell subsets as determined by assay of specific biomarkers, ALDH and CD133, and effect of estrogen exposure. NSCLC cells (A549) were treated in vitro with control (CON), 10 nM estradiol-17b (E2), or E2 in the presence of […] fulvestrant. Thereafter, aldehyde dehydrogenase (ALDH) activity and CD133 expression were analyzed by established double labeling methods using an Aldefluor Assay Kit and CD133 antibody, respectively, followed by FACS sorting. The numbers of ALDH+/CD133+ lung tumor cells, representing a putative CSC subset, was expressed as a percent of total lung tumor cells for each treatment group. […] Experiments were done in triplicate.
Substantial evidence has accumulated to support the role of a small subset of self-renewing cells that sustain malignant growth. […] Based on these findings, we identified CD133+/ALDH+ tumor stem/progenitor cells from human lung cancer cells in vitro using an Aldefluor assay (to isolate ALDH+ cells) (5,7,8) in combination with labeled anti-CD133 antibodies (3,10) followed by fluorescence-activated cell sorting analysis (11). In brief, ALDH activity and CD133 expression were analyzed by established double labeling methods using the Aldefluor Assay Kit (Stem Cell Technologies) and CD133/1 antibody (Miltenyi) according to the manufacturer's instructions. […] Data were analyzed using FlowJo (Tree Star Inc.). […]

For `C/C1=C\CC[C@@]2(C)O[C@H]2[C@H]2OC(=O)[C@@H](CN(C)C)[C@@H]2CC1` [JD201, (1aR,7aS,8R,10aS,Z)-8-((Dimethylamino)methyl)-1a,5-dimethyl-2,3,6,7,7a,8,10a,10b-octa-hydrooxireno[2′,3′:9,10]cyclodeca[1,2-b]furan-9(1aH)-one, fumaric acid salt], the plasma concentrations ([1]; after oral administration) is listed as 40 µM, the oral bioavaliability ([1]; oral) is listed as 70% and the toxicology profile [2] is listed as “acceptable”.

In the case of `C/C1=C/CC[C@@]2(C)OC2[C@H]2OC(=O)[C@@H](CNCc3ccccn3)[C@@H]2CC1.O=C(O)/C=C/C(=O)O` (stereo partly drawn) [JD202, (1aR,7aS,8R,10aS,Z)-1a,5-Dimethyl-8-(((pyridin-2-ylmethyl)amino)methyl)-2,3,6,7,7a,8, 10a,10b-octahydrooxireno[2′,3′:9,10]cyclodeca[1,2-b]furan-9(1aH)-one, fumaric acid salt], the “growth inhibition at 10 μM” value ([3]; 10 μM, A549, H23, H2122, H1975) was “Significant growth inhibition”, the “growth inhibition at 100 μM” value ([3]; A549, H23, H2122, H1975) was “Significant growth inhibition” and the “inhibitory activity relative to other analogues” value ([3]; FIG. 5, 0.1-100 μM) was “greater inhibitory activity than compounds 205 and 207”. The “phosphorylation of the p65 subunit of NF-κB” value [4] was “reduced phosphorylation of the p65 subunit of NF-κB; also recorded: inhibit phosphory-lation of NF-κB/p65” and the “phosphorylation of NF-κB/p65” value [4] was “inhibit phosphorylation of NF-κB/p65”.

In the case of `CON(C)C[C@@H]1C(=O)O[C@H]2[C@H]1CC/C(C)=C/CC[C@@]1(C)O[C@@H]21` [JD204, (1aR,7aS,8R,10aS,Z)-8-((Methoxy(methyl)amino)methyl)-1a,5-dimethyl-2,3,6,7,7a,8,10a, 10b-octahydrooxireno[2′,3′:9,10]cyclodeca[1,2-b]furan-9(1aH)-one, fumaric acid salt], the “phosphorylation of the p65 subunit of NF-κB” value [4] was “reduced phosphorylation of the p65 subunit of NF-κB; also recorded: inhibit phosphory-lation of NF-κB/p65” and the “phosphorylation of NF-κB/p65” value [4] was “inhibit phosphorylation of NF-κB/p65”.

In the case of `C/C1=C\CC[C@@]2(C)O[C@H]2[C@H]2OC(=O)/C(=C\N3CCCCC3)[C@@H]2CC1` [JD205, (1aR,4Z,7aS,8Z,10aS)-1a,5-Dimethyl-8-(piperidin-1-ylmethylene)-2,3,6,7,7a,8,10a,10b-octahydrooxireno[2′,3′:9,10]cyclodeca[1,2-b]furan-9(1aH)-one], the “growth inhibition at 100 μM” value ([3]; A549, H23, H2122, H1975) was “Significant growth inhibition”, the “phosphorylation of the p65 subunit of NF-κB” value [4] was “inhibit phosphory-lation of NF-κB/p65” and the “phosphorylation of NF-κB/p65” value [4] was “inhibit phosphorylation of NF-κB/p65”.

In the case of `C/C1=C\CC[C@@]2(C)O[C@H]2[C@H]2OC(=O)[C@@H](CN(C)O)[C@@H]2CC1` [JD207, (1aR,7aS,8R,10aS,Z)-8-((Hydroxy(methyl)amino)methyl)-1a,5-dimethyl-2,3,6,7,7a,8,10a, 10b-octahydrooxireno[2′,3′:9,10]cyclodeca[1,2-b]furan-9(1aH)-one, fumaric acid salt], the “growth inhibition at 100 μM” value ([3]; A549, H23, H2122, H1975) was “Significant growth inhibition”.

With `C[C@]12CC[C@@H]3c4ccc(O)cc4C[C@@H](CCCCCCCCC[S+]([O-])CCCC(F)(F)C(F)(F)F)[C@H]3[C@@H]1CC[C@@H]2O` (stereo partly drawn) [fulvestrant] the “growth of MCF-7 parent xenografts” value [5] was “markedly suppressed” and the “antiestrogen sensitivity of MCF-7/HER-2 xenografts” value (MCF-7/HER2 cells) was “partial sensitivity”.

In the case of `CC/C(=C(\c1ccccc1)c1ccc(OCCN(C)C)cc1)c1ccccc1` [tamoxifen], the “response of MCF-7/TMR cells to tamoxifen alone” value [6] was “resistant”, the “growth of MCF-7 parent xenografts” value [5] was “markedly suppressed” and the “antiestrogen sensitivity of MCF-7/HER-2 xenografts” value (MCF-7/HER2 cells) was “insensitive”.

For estradiol-17b, the “proportion/number of ALDH+/CD133+ cancer stem/progenitor cells” value (A549 NSCLC cells) was “increases the proportion of cancer stem/progenitor cell subsets” and the “proportion/number of ALDH+/CD133+ cancer stem/progenitor cells” value (A549 NSCLC cells; listed as estrogen) was “modest increase in the numbers of CSC”.

Source: US9512138B2, “Compositions and methods for treating cancer” (The Regents of the University of California, priority 2012, dated 2016)
